We go through three molecules from patent publication US5004738A, “1,1-dioxopenicillanoyl oxymethyl D-6-(α-(methyleneamino) phenylacetamido)-penicillanate and a process for the preparation thereof” (priority 1989, dated 1991).

≈ marks a conversion by molar mass, not a printed value.

One assay deals with β-lactamases. The following applies: cited from earlier work.
Assay [1] relates to gram-positive and gram-negative bacteria. The following applies: cited from earlier work.
Assay [2] concerns Enterobacter cloacae 132E. Briefly: In vitro antibacterial activity test (agar dilution, Mueller Hinton Agar). The assay is classed as cell-based. The conditions noted are these: 18 hours at 37° C. Here is the method: (§1) (1) In vitro antibacterial activity test
(§2) 2 fold dilutions of the testing compounds were employed by using agar dilution method of Mueller Hinton Agar. After 18 hours at 37° C., the susceptibility (MIC) of the test organism was accepted as the lowest concentration of compound capable of producing complete inhibition of growth as judged by the naked eye.

A further assay relates to Escherichia coli DC2. Described as above. The assay is classed as cell-based. The following applies: 18 hours at 37° C. Here is the method:
as §1, §2

Assay [3] deals with Staphylococcus aureus SG511. The assay is described as above. The conditions noted are these: 18 hours at 37° C. The assay is classed as cell-based. Here is the method: as §1, §2
The subject of assay [4] is Streptococcus faecium MD8. Described as above. The assay is classed as cell-based. The conditions noted are these: Enterococcus faecium, 18 hours at 37° C. On the procedure:
as §1, §2

As for `CC1(C)[C@H](C(=O)O)N2C(=O)C[C@H]2S1(=O)=O` [sulbactam, 3.3-dimethyl-7-oxo-4thia-1-azabicyclo(3.2.0)heptane-2-carboxylic acid, 4-4-dioxide [2S(2α,5α)]], in the assay on β-lactamases (alone), the “inhibition of β-lactamases” value was “poor inhibitor of β-lactamases”. Besides, the “inhibition of the enzymatic hydrolysis of antibiotics” value in the assay on β-lactamases (with β-lactamase inhibiting antibiotics) is listed as “modest increase in inhibition of the enzymatic hydrolysis of antibiotics”.
Regarding `C=N[C@@H](C(=O)N[C@@H]1C(=O)N2[C@@H]1SC(C)(C)[C@@H]2C(=O)O)c1ccccc1` [Methanpicillin], the “inhibition against gram-positive and gram-negative bacteria” value in assay [1] is “marked increase in inhibition against gram-positive and gram-negative bacteria”.
As for `C=N[C@@H](C(=O)N[C@@H]1C(=O)N2[C@@H]1SC(C)(C)[C@@H]2C(=O)OCOC(=O)[C@@H]1N2C(=O)C[C@H]2S(=O)(=O)C1(C)C)c1ccccc1` [compound (I), 1,1-dioxopenicillanoyl oxymethyl D-6-[(α-methyleneamino)phenylacetamido]-penicillanate], the minimal inhibitory concentration (MIC) amounted to 1.56 µg/mL (≈ 2.58 µM) in assay [2], 1.56 µg/mL (≈ 2.58 µM) in the assay with Escherichia coli DC2, 0.098 µg/mL (≈ 0.162 µM) in assay [3] and 0.781 µg/mL (≈ 1.29 µM) in assay [4].

What is called MIC is the lowest concentration that inhibits growth of the organism. A lower MIC goes with greater potency.
